Measured values reported in ChEMBL document CHEMBL1201862, “PubChem BioAssay data set” (2004).
Each block holds one molecule with its values, some of them ahead of it. Active and inactive are the calls of the source.

Tests used:
[1] = molecular target: T1, Kappa-type opioid receptor (Homo sapiens, UniProt P41145); test: KOR agonist analogs, imaging readout, SAR follow-up, image-based (AID 2359); assay type: functional
[2] = molecular target: T2, Delta-type opioid receptor (Homo sapiens, UniProt P41143); test: DOR agonists, SAR follow-up, image-based (AID 2370); assay type: functional
[3] = molecular target: T1, Kappa-type opioid receptor; test: KOR antagonists by imaging, SAR follow-up, image-based (AID 2348); assay type: functional
Mu-type opioid receptor [4] = molecular target: T3, Mu-type opioid receptor (Homo sapiens, UniProt P35372); test: MOR agonists by imaging, SAR follow-up, image-based (AID 2352); assay type: functional
[5] = molecular target: T2, Delta-type opioid receptor; test: DOR antagonists, SAR follow-up, image-based (AID 2357); assay type: functional
[6] = molecular target: T1, Kappa-type opioid receptor; test: kappa opioid receptor blockers, cell-based, luminescence, beta-arrestin, SAR follow-up (AID 2285); assay type: functional
Mu-type opioid receptor [7] = molecular target: T3, Mu-type opioid receptor; test: MOR antagonists, SAR follow-up, image-based (AID 2420); assay type: functional;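 also: compounds added before stimulation of receptor with agonist DAMGO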
[8] = molecular target: Polyadenylate-binding protein 1 (Homo sapiens, UniProt P11940); test: PABP inhibition in translation initiation, SAR follow-up (AID 435018); assay type: functional
[9] = molecular target: Eukaryotic translation initiation factor 4H (Homo sapiens, UniProt Q15056); test: eIF4H inhibition in translation initiation, SAR follow-up (AID 435011); assay type: functional
J774.A1 = test: Confirmation of image-based Screening Assay for Inhibitors of Phagocytosis. [Related pubchem assays (depositor defined):AID1029, AID1643]; assay type: functional, cell-based; details: Mus musculus
[10] = Shn3 3'UTR reporter inhibitors, dose response, cell-based, Clone20 osteoblasts, firefly luciferase, cherry-picked (AID 624132); assay type: functional;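 also: firefly luciferase luminescence from reporter carrying the Shn3 3'UTR in osteoblasts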
Protein Rev = Protein Rev (Human immunodeficiency virus type 1 group M subtype B (isolate HXB2)(HIV-1), UniProt P04618); test: inhibitors of Rev binding to RRE RNA, dose response, biochemical, fluorescence polarization, HIV-1 (AID 434976); parameters: species or system Human immunodeficiency virus 1
[11] = molecular target: T4, Zinc finger protein mex-5 (Caenorhabditis elegans, UniProt Q9XUB2); test: MEX-5/TCR-2 RNA interaction inhibitors, dose response, biochemical, C. elegans, fluorescence polarization (AID 1960)
T4 sequence (Q9XUB2 whole entry): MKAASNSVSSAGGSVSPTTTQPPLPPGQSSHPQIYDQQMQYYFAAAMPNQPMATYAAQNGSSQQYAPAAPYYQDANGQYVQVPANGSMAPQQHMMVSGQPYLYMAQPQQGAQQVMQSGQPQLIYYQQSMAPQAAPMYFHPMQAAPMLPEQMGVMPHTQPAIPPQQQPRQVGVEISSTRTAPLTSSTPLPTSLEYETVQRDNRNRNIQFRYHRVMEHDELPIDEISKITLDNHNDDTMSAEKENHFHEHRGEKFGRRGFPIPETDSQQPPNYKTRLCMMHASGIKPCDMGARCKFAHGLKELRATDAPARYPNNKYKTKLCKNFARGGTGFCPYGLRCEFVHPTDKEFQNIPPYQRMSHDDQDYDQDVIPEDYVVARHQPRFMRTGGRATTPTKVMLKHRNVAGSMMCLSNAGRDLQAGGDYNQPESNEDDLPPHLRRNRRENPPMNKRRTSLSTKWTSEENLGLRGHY

[12] = molecular target: T5, RNA-binding protein pos-1 (Caenorhabditis elegans, UniProt G5EF15); test: inhibitors of POS-1/mex-3 RNA binding, dose response, biochemical, fluorescence polarization (AID 1964);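 also: purified POS-1 fused to maltose binding protein made in E. coli; potency of compounds blocking POS-1 binding to fluorescent RNA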
T5 sequence (G5EF15 whole entry): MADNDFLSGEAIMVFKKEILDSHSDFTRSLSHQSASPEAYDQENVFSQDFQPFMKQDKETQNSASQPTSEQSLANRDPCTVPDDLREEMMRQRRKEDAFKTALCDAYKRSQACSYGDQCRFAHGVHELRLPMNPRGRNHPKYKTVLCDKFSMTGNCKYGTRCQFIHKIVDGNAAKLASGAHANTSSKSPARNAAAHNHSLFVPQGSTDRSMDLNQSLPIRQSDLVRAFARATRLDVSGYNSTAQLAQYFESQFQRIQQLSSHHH

[13] = control 3'UTR Renilla luciferase suppression, dose response, counter-screen for Shn3 inhibitor project, cell-based, Clone20-Shn3RL, cherry-picked (AID 624133); assay type: functional
[14] = molecular target: Female germline-specific tumor suppressor gld-1 (Caenorhabditis elegans, UniProt Q17339); test: inhibitors of GLD-1 binding to TGE RNA, dose response, biochemical, fluorescence polarization, C. elegans (AID 2802);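 also: fluorescence polarization of labeled TGE RNA bound by purified gld-1 protein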
[15] = molecular target: T6, Neuropeptides B/W receptor type 1 (Homo sapiens, UniProt P48145); test: GPR7 antagonist potency, late-stage follow-up, cell-based, fluorescence, dose response (AID 463251); assay type: functional
T6 sequence (P48145 whole entry): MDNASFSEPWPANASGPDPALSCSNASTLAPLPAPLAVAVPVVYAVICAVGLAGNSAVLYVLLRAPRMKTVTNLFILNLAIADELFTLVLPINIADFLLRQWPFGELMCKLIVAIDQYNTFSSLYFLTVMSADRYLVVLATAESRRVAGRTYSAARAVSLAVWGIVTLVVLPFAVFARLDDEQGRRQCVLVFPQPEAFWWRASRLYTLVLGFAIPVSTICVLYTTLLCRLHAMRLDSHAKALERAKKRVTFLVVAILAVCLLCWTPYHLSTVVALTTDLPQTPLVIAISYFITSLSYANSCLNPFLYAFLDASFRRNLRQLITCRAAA

[16] = molecular target: Melanin-concentrating hormone receptor 1 (Homo sapiens, UniProt Q99705); test: Late-stage fluorescence-based counterscreen for antagonists of the G-protein coupled receptor 7 (GPR7): cell-based dose response assay to identify antagonists of the melanin-concentrating hormone receptor 1 (MCHR1). [Related pubchem assays (depositor defined):AID1861, AID1880, AID1952, AID2148, AID2251, AID2257, AID485339]; assay type: functional;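 also: stimulated with 30 nM MCH peptide agonist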
Mu-type opioid receptor [17] = molecular target: T3, Mu-type opioid receptor; test: SAR Analysis of Antagonists of the MOR Receptor using an Image-Based Assay - Set 3. [Related pubchem assays (depositor defined):AID1777, AID1785, AID1786, AID1966, AID2133, AID2136, AID2284, AID2285, AID2420]; assay type: functional
[18] = molecular target: T2, Delta-type opioid receptor; test: SAR Analysis of Antagonists of the DOR Receptor using an Image-Based Assay - Set 3. [Related pubchem assays (depositor defined):AID1777, AID1785]; assay type: functional
[19] = molecular target: T1, Kappa-type opioid receptor; test: SAR analysis of Antagonists of the Kappa Opioid Receptor (KOR) using an Image-Based Assay - Set 4. [Related pubchem assays (depositor defined):AID1777, AID1785]; assay type: functional
[20] = molecular target: T1, Kappa-type opioid receptor; test: SAR analysis of small molecule antagonists of the kappa opioid receptor via a luminescent beta-arrestin assay - Set 3. [Related pubchem assays (depositor defined):AID1777, AID1778, AID1785, AID1786, AID1966, AID2133, AID2136, AID2285, AID2495]; assay type: functional
[21] = molecular target: T7, Tyrosine-protein phosphatase non-receptor type 7 (Homo sapiens, UniProt P35236); test: redox-dependent HePTP inhibition, mechanism study, biochemical, fluorescence (AID 2068); assay type: functional
T7 sequence (P35236 whole entry): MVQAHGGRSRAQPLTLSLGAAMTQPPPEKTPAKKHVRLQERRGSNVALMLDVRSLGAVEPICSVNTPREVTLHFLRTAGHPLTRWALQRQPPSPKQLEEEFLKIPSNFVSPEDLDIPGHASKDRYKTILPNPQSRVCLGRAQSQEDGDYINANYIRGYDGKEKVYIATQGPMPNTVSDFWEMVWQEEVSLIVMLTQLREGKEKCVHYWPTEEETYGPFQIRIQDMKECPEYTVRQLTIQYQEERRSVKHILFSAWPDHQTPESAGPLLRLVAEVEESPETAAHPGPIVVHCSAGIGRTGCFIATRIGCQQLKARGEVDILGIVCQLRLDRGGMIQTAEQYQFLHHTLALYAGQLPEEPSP

HeLa = test: HeLa cell cytotoxicity, dose response, cytotoxicity control, 24 h, cherry-picked samples (AID 504726); assay type: functional, cell-based; details: Homo sapiens;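 also: potency for cytotoxicity as loss of luminescence signal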
ORF 73 = ORF 73 (Human herpesvirus 8, UniProt O40947); test: inhibitors of C-LANA binding to LBS DNA, dose response, biochemical, fluorescence polarization, cherry-picked samples (AID 504725); parameters: species or system Human gammaherpesvirus 8;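 also: fluorescence polarization of a labeled DNA duplex reporting LANA DNA binding; potency is for inhibitors that block LANA binding to the DNA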
[22] = molecular target: T8, Probable nicotinate-nucleotide adenylyltransferase (Staphylococcus aureus (strain N315), UniProt P65502); assay type: functional, Staphylococcus aureus subsp. aureus N315; details: read-out: IC50_Mean;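 as to IC50 Mean: confirmatory dose-response retesting of NadD inhibitor hits first found in an ultra-high-throughput screen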
[23] = molecular target: T9, Small ubiquitin-related modifier 1 (Homo sapiens, UniProt P63165); test: inhibitors of SUMO1 partner interactions, dose response, biochemical, FRET (AID 624383); assay type: functional; details: read-out: IC50_Mean
[24] = molecular target: T8, Probable nicotinate-nucleotide adenylyltransferase; assay type: functional, Staphylococcus aureus subsp. aureus N315
[25] = molecular target: T9, Small ubiquitin-related modifier 1; test: inhibitors of SUMO1 peptide binding, dose response, biochemical, fluorescence polarization, uHTS hits (AID 624382); assay type: functional; details: read-out: IC50_Mean
[26] = molecular target: T10, Rac GTPase-activating protein 1 (Homo sapiens, UniProt Q9H0H5); test: MgcRacGAP GTPase-activating activity inhibitors, confirmation, biochemical, ADP Hunter fluorescence, primary and confirmatory (AID 624330); assay type: functional
T10 sequence (Q9H0H5 whole entry): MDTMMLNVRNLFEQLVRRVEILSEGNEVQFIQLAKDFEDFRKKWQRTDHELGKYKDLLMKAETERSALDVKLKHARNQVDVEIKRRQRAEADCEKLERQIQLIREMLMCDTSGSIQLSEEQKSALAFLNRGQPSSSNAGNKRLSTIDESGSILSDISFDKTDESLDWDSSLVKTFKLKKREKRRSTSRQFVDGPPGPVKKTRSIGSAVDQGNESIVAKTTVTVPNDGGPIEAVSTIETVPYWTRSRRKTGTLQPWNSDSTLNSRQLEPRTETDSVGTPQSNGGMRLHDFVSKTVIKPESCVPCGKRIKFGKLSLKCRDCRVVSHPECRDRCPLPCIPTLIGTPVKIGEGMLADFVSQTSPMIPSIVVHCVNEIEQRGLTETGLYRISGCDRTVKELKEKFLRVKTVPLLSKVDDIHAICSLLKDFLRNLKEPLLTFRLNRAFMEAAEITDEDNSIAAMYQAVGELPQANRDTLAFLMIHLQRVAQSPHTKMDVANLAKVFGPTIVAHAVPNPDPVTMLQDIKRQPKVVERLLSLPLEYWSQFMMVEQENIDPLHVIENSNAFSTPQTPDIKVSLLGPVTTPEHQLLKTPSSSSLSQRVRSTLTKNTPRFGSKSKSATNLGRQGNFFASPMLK

[27] = molecular target: T1, Kappa-type opioid receptor; assay type: functional
Beta-galactosidase = Beta-galactosidase (Escherichia coli, UniProt Q8VNN2); assay type: functional
[28] = molecular target: T1, Kappa-type opioid receptor; assay type: functional; remark: listed apart in the source

T3 sequence (P35372 whole entry): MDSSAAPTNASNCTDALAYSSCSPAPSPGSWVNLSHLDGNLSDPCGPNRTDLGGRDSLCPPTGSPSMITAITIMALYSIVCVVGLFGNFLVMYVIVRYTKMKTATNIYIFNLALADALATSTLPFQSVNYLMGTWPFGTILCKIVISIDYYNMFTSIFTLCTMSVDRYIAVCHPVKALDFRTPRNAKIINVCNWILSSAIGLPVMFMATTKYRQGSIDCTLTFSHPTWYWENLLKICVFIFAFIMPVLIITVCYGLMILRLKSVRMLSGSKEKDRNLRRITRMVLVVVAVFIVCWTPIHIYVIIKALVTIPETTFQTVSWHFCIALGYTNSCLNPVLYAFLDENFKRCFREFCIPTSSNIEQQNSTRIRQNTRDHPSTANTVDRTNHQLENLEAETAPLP
T1 sequence (P41145 whole entry): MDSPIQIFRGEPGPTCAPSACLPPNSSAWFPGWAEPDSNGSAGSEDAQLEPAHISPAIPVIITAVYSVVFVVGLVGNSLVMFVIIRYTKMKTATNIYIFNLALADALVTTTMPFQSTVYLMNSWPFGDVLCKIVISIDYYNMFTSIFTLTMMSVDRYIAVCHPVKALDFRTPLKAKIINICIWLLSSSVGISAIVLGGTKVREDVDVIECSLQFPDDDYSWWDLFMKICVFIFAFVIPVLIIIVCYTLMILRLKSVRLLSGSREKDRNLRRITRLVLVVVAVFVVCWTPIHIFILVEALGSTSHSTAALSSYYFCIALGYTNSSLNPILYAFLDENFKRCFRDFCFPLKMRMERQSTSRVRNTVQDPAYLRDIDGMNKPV
T2 sequence (P41143 whole entry): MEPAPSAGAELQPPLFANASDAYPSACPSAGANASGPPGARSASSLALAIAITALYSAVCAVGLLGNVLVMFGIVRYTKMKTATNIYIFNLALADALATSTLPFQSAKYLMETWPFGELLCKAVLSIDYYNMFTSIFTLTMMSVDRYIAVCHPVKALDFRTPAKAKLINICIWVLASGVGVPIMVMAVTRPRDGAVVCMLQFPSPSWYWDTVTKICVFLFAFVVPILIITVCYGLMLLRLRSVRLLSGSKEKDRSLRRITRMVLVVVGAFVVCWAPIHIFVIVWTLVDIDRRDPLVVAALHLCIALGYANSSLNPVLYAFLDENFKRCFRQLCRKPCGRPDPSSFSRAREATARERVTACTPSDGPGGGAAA
T9 sequence (P63165 whole entry): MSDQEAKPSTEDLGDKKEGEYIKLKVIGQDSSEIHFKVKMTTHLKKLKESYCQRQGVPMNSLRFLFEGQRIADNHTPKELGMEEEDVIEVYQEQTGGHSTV
Sequence of Melanin-concentrating hormone receptor 1 (Q99705 whole entry): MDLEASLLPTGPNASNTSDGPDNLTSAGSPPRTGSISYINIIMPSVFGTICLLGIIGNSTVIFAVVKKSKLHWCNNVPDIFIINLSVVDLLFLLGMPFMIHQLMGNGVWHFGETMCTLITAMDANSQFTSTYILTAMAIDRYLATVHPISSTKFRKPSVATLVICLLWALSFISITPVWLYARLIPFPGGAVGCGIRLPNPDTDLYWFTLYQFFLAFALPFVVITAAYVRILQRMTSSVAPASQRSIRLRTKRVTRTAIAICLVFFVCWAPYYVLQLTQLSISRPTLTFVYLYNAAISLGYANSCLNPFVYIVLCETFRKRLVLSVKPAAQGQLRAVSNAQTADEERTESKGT
Sequence of Protein Rev (P04618 whole entry): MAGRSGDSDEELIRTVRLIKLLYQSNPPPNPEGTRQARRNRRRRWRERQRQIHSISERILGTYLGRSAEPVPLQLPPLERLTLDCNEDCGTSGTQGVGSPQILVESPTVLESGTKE
Sequence of Polyadenylate-binding protein 1 (P11940 whole entry): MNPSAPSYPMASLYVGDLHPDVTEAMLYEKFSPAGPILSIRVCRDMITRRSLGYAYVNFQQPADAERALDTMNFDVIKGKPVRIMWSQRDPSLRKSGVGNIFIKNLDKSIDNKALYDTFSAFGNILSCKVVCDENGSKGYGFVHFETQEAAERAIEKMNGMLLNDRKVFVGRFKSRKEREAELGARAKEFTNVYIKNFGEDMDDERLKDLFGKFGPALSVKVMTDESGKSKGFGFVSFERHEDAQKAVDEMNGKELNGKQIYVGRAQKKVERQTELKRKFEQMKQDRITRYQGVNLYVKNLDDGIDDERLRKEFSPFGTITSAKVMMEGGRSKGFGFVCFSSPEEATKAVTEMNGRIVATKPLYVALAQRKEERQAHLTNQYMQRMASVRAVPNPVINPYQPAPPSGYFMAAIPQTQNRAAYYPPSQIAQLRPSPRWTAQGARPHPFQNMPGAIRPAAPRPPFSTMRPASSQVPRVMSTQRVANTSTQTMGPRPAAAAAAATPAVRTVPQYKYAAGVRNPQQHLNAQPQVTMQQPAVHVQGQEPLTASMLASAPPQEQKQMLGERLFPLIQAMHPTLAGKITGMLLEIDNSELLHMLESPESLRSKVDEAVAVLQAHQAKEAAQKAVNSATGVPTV
Sequence of Beta-galactosidase (Q8VNN2 whole entry): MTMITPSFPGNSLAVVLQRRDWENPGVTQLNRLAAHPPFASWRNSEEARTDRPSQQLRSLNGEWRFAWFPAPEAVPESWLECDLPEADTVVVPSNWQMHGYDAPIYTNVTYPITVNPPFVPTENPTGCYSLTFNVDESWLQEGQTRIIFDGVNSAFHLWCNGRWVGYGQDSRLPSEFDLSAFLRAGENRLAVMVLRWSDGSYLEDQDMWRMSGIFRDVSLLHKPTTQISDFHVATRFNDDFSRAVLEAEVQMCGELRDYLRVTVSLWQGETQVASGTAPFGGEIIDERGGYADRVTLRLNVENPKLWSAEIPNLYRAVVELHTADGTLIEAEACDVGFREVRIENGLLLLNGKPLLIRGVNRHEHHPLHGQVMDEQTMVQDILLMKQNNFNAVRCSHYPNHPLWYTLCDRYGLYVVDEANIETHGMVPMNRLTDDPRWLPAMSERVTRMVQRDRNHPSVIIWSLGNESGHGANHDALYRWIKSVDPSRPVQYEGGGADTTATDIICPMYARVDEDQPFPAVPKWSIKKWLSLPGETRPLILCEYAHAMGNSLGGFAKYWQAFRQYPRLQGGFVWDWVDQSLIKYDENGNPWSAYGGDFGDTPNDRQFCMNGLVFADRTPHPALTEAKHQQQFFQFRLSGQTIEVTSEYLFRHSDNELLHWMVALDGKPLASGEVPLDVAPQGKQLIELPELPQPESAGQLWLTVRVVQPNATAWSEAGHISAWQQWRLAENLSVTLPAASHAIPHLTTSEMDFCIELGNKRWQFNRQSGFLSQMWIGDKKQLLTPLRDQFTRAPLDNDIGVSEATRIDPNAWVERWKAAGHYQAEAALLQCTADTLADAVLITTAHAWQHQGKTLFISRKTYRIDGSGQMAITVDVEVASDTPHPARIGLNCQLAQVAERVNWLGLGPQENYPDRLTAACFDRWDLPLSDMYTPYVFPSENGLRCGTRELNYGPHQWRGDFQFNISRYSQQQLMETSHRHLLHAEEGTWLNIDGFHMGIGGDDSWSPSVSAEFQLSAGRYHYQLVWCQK
Sequence of ORF 73 (O40947 whole entry): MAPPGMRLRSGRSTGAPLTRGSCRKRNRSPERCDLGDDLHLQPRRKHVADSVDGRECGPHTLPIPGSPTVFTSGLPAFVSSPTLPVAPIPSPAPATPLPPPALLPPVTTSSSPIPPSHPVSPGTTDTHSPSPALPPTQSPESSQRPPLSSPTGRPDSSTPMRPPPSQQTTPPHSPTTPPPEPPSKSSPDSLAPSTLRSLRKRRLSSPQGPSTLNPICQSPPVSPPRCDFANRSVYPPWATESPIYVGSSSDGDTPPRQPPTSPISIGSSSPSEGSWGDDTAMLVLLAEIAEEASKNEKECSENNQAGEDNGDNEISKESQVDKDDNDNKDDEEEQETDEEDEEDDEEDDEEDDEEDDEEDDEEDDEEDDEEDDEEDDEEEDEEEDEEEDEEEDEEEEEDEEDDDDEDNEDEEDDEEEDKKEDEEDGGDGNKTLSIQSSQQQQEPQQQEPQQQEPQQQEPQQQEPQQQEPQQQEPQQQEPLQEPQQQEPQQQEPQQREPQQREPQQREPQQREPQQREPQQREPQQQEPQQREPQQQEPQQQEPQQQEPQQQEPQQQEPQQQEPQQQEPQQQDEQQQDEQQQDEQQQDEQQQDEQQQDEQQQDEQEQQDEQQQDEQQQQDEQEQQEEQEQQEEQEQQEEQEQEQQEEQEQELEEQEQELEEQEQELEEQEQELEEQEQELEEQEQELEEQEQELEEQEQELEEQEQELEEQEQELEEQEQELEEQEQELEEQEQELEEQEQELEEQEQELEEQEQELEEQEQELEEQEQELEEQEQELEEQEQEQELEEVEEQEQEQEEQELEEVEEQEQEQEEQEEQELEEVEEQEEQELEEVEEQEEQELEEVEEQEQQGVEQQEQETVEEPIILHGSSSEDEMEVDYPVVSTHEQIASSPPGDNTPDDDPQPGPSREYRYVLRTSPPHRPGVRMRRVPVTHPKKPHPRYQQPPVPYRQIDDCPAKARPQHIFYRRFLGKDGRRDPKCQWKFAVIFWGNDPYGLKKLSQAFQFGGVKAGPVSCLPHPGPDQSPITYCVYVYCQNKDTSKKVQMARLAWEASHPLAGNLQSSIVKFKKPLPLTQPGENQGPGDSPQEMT

- EC50 [1]: > 32 µM (inactive)
- EC50 [2]: > 32 µM (inactive)
- IC50 [3]: 20.5 µM (inactive)
- EC50 (Mu-type opioid receptor [4]): > 32 µM (inactive)
- IC50 [5]: > 32 µM (inactive)
- IC50 [6]: > 10 µM (inactive)
- IC50 (Mu-type opioid receptor [7]): > 32 µM (inactive)
SMILES: Cc1ccc(C)c(N2CCN(CCCNC(=O)Cn3c(=O)c4cccn4c4cccnc43)CC2)c1

SMILES: Cc1ccccc1NC(=O)CSc1ccc(-c2ccco2)nn1
- IC50 [8]: > 100 µM (inactive)
- IC50 [9]: > 100 µM (inactive)

SMILES: Cc1c(C=NNC(=O)C2COc3ccccc3O2)c2ccccc2n1C (stereo not drawn)
- IC50 (J774.A1): > 25 µM (inactive)

SMILES: CCOC(=O)Cn1c(=O)c(-c2cc(Br)ccc2N)nc2ccccc21
- AC50 [10]: 0.758 µM (active)
- IC50 (Protein Rev): 4.53 µM (active)
- EC50 [11]: 26.1 µM (inconclusive)
- EC50 [12]: > 300 µM (inconclusive)
- AC50 [13]: 0.833 µM (active)
- IC50 [14]: 25.4 µM (inactive)

- IC50 [15]: 2.1 µM (active)
- IC50 [16]: 6.3 µM (active)
SMILES: CC(=O)Nc1ccc(Oc2c(Cl)cnn(-c3ccc(C(C)C)cc3)c2=O)cc1

- IC50 (Mu-type opioid receptor [17]): 14.3 µM (inactive)
- IC50 [18]: > 32 µM (inactive)
- IC50 [19]: 1.79 µM (active)
- IC50 [20]: 5.58 µM (active)
SMILES: COc1ccc(CN(CCNC(=O)c2ccc(CNS(=O)(=O)c3ccccc3)cc2)C(C)C)cc1

- IC50 [21]: 0.683 µM (active)
SMILES: CCOC(=O)CCNC(=O)Nc1ccc2nc(-c3ccco3)c(-c3ccco3)nc2c1

SMILES: O=S(=O)(O)c1cc(O)c2ccc(Nc3ccccc3)cc2c1
- AC50 (HeLa): 241 µM (active)
- AC50 (ORF 73): 95.9 µM (active)
- IC50 [22]: 40.3 µM (active)
- IC50 [23]: 2.16 µM (active)
- IC50 [24]: 15.9 µM (active)
- IC50 [25]: > 66.6 µM (inactive)
- IC50 [26]: 40.9 µM (active)

- IC50 [27]: 4.88 µM (active)
- EC50 (Beta-galactosidase): > 31.5 µM (inactive)
- IC50 [28]: 2.46 µM
SMILES: CC/C(=N\Nc1ccnc2cc(Cl)ccc12)c1ccc(O)cc1
